Test results reported in patent publication US20260240884A1, “MIXTURE OF HUMAN MILK OLIGOSACCHARIDES” (N.V. Nutricia, priority 2023, published 2026).

Columns and labels:
SARS-CoV2 WA1 = type: cell-based; details: virus pre-incubated 1 h with 0.5-16 mg/mL; MOI 0.1; 48 h; FIG. 1
RSV-A2 [1] = assay: Pre-incubation of HEp-2 cells with HMOs before RSV-A2 infection (Viral ToxGlo); type: cell-based, respiratory syncytial virus
Experimental: To assess the effect of mixtures of HMOs on a negative-sense single-stranded RNA virus in vitro infection assays were performed with RSV-A2 strain. Pre-incubation of either HEp-2 cells or RSV-A2 with HMOs prior to infection was compared to assess anti-viral activity. Hep2 cells were exposed to the following conditions as discussed in more detail separately: • I. Pre-incubation of HEp-2 cells with HMOs before viral infection. • II.
HEp-2 cells were seeded in white [Greiner 655098]96 well plates in assay medium (EMEM [Sigma M2279]) supplemented with 2% heat-inactivated fetal bovine serum (HI-FBS) [Gibco 10500064], 1% Penicillin/streptomycin [Gibco 15140122] and 1% L-glutamine [Gibco 25030024] and incubated at 37° C. and 5% CO2 for 5 hours.
HMO mixtures were prepared in sterile water and ribavirin (compound that blocks viral RNA synthesis and viral mRNA capping) was prepared in 1% DMSO at 10× test concentration in a round-bottom 96-well plate [Corning 3788], then serially diluted 2-fold.
The following compounds were assessed for their capacity to inhibit RSV-A2 viral infection: • 2′-FL • A mixture of GOS:FOS at a 9:1 weight ratio • Total HMOs • Mixture of 5 HMOs • Mixture of 19 HMOs • 6′-SL
Test compounds were subsequently transferred to the HEp-2 cell plates. Additional assay medium was added to ensure a final HMO concentration range of 0.13-16 mg/mL. Cell plates were incubated for 24 hours at 37° cand 5% CO2.
After 24-hour incubation with the test conditions RSV-A2 was added to the HMO containing HEp-2 cell plates to achieve a final multiplicity of infection [MOI] of 0.5. Cell plates were incubated for a further 72 hours at 37° C. and 5% CO2.
Viral ToxGlo™ [Promega G8943] was added to the plates to assess cell metabolism following viral infection and HMO treatment. After 20 minutes incubation, luminescence of each plate was measured on a spectrophotometer. Data were analysed using GraphPad Prism software to determine the concentration effective in producing 50% of viral inhibition expressed as ECso values for ribavirin and HMOs where relevant.

RSV-A2 [2] = assay: Pre-incubation of RSV-A2 with HMOs prior to infection of HEp-2 cells (Viral ToxGlo); type: cell-based, respiratory syncytial virus
[3] = test system: rotavirus (RV) strain SA11; assay: Caco-2 epithelial barrier model infected with rotavirus SA11 (TEER, lucifer yellow permeability); type: cell-based; details: Caco-2, 5% (50 mg/ml) for 4 h before SA11 MOI 0.1; 20 h p.i.; FIG. 2A
[4] = test system: IL-8 secretion of HT-29 cells; assay: IL-8 secretion and viability of HT-29 cells pre-incubated with test compounds and challenged with Lyovec-complexed Poly I:C; type: cell-based, Human

SMILES	viral neutralization efficacy (viral RNA by RT-qPCR) (SARS-CoV2 WA1)	Maximum viral inhibition (%) (RSV-A2 [1]; HEp-2 cells pre-incubated 24 h, 0.13-16 mg/mL, RSV-A2 MOI 0.5, 72 h)	Test concentration maximum viral inhibition (RSV-A2 [1]; HEp-2 cells pre-incubated 24 h, concentration at which the maximum inhibition was seen) [mg/mL]	anti-viral activity, replicate 1 (in words) (RSV-A2 [1]; HEp-2 pre-incubation, replicate 1 (67% infection))	Maximum viral inhibition (%) (RSV-A2 [2]; RSV-A2 pre-incubated 1 h, 0.13-16 mg/mL, MOI 0.5, 72 h)	Test concentration maximum viral inhibition (RSV-A2 [2]; RSV-A2 pre-incubated 1 h, concentration at which the maximum inhibition was seen) [mg/mL]	antiviral activity (in words) (RSV-A2 [2]; RSV-A2 pre-incubated prior to infection, both replicates (94-95% infection))	prevention of rotavirus induced decrease in TEER [3]	Mean IL-8 secretion ([4]; 0.1% + Poly I:C, Poly I:C alone 21799.28) [pg/mL]	Mean IL-8 secretion ([4]; 0.1%, no Poly I:C, Medium 359.54) [pg/mL]
CC(=O)N[C@H]1[C@H]([C@H](O)[C@H](O)CO)O[C@@](OC[C@H]2O[C@@H](O[C@H]3[C@H](O)[C@@H](O)[C@H](O)O[C@@H]3CO)[C@H](O)[C@@H](O)[C@H]2O)(C(=O)O)C[C@@H]1O [6′-SL, 6′-sialyllactose]	did not show viral neutralization efficacy	2.6	8	no anti-viral activity	−0.58	1	no anti-viral activity			
O=C[C@H](O)[C@@H](O)[C@H](O[C@@H]1O[C@H](CO)[C@@H](O)[C@H](O)[C@H]1O)[C@H](O)CO [Cellobiose, cellobiose]								no effect	20023.80	277.94
